Results published in PMC9400670, “Establishing the selective phospholipid membrane coordination, permeation and lysis properties for a series of ‘druggable’ supramolecular self-associating antimicrobial amphiphiles” (Chemical Science, 2022).
Values after ≈ are worked out from the molar mass of the structure shown. Read-outs that look alike come from different tables or passages of the source. Blank lines part the entries; values can stand above or below the compound they belong to.

What was measured:
MRSA USA300 [1] = assay: MIC50 determination and initial screening from OD600 growth curves, MRSA USA300; assay type: cell-based, Staphylococcus aureus
Description: The antimicrobial activity of SSAs 1–14 was established against both a model Gram-positive, clinically relevant methicillin resistant Staphylococcus aureus (MRSA), and a model Gram-negative, E. coli bacteria, Table 1. Here MIC50 values are given in mM to enable the derivation of molecular structure: antimicrobial efficacy: physical property relationships. […]
Data were acquired in endpoint mode. […]
Section 3: Microbial Methods
These methods were taken directly from UK Health and Security Office (UKHSA) standard operating […]
Preparation of Luria Broth media (LB): Yeast extract (5 g), tryptone (10 g) and sodium chloride (10 g) were dissolved in dH₂O (1 L) then divided into bottles and autoclaved.
Preparation of Luria Broth (LB) agar plates: Agar (6 g) was added to LB (400 mL) and autoclaved. Once cool, the LB agar was poured into sterile petri dishes under sterile conditions and allowed to set. LB plates were stored at 4 °C until use.
Preparation of bacterial plates: Sterile LB agar plates were streaked using Escherichia coli DH10B or USA300 Methicillin-Resistant Staphylococcus aureus then incubated at 37 °C overnight.
Preparation of Inoculum: An initial culture was made up by inoculating LB media (5 mL) with a single colony of bacteria under sterile conditions and incubated at 37 °C with shaking overnight. The following day, overnight bacterial cultures were subcultured into fresh LB medium to a starting OD600 […]
Preparation of 96 well microplate for screening: 20 mM solutions of each compound to be tested were made up using 5 % ethanol. The 1:100 cell suspension (150 µL) was pipetted into the wells and SSA compound solutions (30 µL) were added into each well. The final screening concentration for each compound was 3.3 mM in the well. These were incubated for 20 hours in a plate reader, with optical density readings being taken at 600 nm every 15 minutes. Optical density readings were plotted against time to produce growth curves. […]
individual wells under sterile conditions. Compounds (30 µL) were added to the wells to equal a total volume of 180 µL in the wells. Six repeats of each concentration for each compound were created each plate. The plates were sealed using parafilm, then incubated at 37°C in a microplate reader for 18-25 hours. Optical density readings were taken at 600 nm every 15 min. Data was used to generate […]
Calculation of MIC50: Growth curves were plotted using OD600 optical density readings in Microsoft ® Excel ® 2013. OD600 optical density readings 900 minutes from the start of each of these growth cultures for each concentration of compound were plotted in Origin ® 2015. The resultant curve was normalized and fitted using the Boltzmann fit to define the MIC50 values for each compound.

[2] = Caco-2 permeability assay; assay type: in vitro ADME, human; settings: human; for recovery at 120 min, 10 µM: Caco-2, % SSA recovered from the assay after 2 hours; for Papp B→A at 120 min, 10 µM: Caco-2, Caco-2
Method: Section 4: DMPK Methods and Further Discussion […]
Caco-2 Permeability studies: The permeability assay for SSA 1-6 and 10 was performed at Cyprotex Discovery Limited (Macclesfield, UK) and analysed at Cancer Research Horizons. SSA 1-6 and 10 were incubated at a final concentration of 10 uM with human intestinal Caco-2 cells at 37°C, 5% CO2 with a relative humidity of 95%. After 120 minutes the apical compartment inserts and the companion plates were separated, and the apical and basolateral samples were transferred. Incubations were conducted in duplicate and the fluorescent membrane integrity marker; Lucifer Yellow was co-incubated with the SSA compounds at the start of the assay. Compounds of known permeability were used as controls and were within acceptance criteria. Further processing is described in:
Sample preparation and liquid chromatography-mass spectrometry analysis.
Sample preparation and liquid chromatography-mass spectrometry analysis: All samples were centrifuged at 3500 rpm at 4°C for 10 min to precipitate protein and enable sampling of supernatant prior to appropriate dilution for liquid chromatography-mass spectrometry (LC-MS/MS analysis). […]
(1.5 µm, 50 x 2.1 mm) at a temperature of 40°C and a binary mobile phase gradient at a flow rate of […]
0.4 mL/min. […]
For the purpose of apparent permeability determination, samples were analysed using a Waters I-Class ultra-high-performance liquid chromatography (UHPLC) system coupled to a Waters Vion mass spectrometer (Waters, Elstree, UK). Separation of analytes was achieved used an Accucore Vanquish C18+ column (1.5 µm, 50 x 2.1 mm) at a temperature of 40°C and a binary mobile phase gradient at a flow rate of 0.4 mL/min. Initial LC conditions for SSA 1-4 comprised 66% solvent A (0.1% formic acid + 5 mM ammonium acetate in water), 33% solvent B (0.1% formic acid + 5 mM ammonium acetate in methanol); this was ramped to 63% B at 1.8 min and 95% B at 1.9 min, held for 0.5 min and then immediately returned to initial conditions and held for the remaining 0.5 min of the method. Initial LC conditions for SSA 5-10 comprised 54% solvent A (0.1% formic acid + 5 mM ammonium acetate in water), 46% solvent B (0.1% formic acid + 5 mM ammonium acetate in methanol); this was ramped to 67% B at 1.8 min and 95% B at 1.9 min, held for 0.5 min and then immediately returned to initial conditions and held for the remaining 0.5 min of the method.
Sample analysis was by electrospray ionisation in negative ion mode. The capillary voltage was 2.5 kV, desolvation gas was 600°C.
For the purpose of PK determination of SSA 5, samples were analysed using a Waters I-Class ultra-high-performance liquid chromatography (UHPLC) system coupled to a Waters Xevo TQ-XS mass spectrometer. Separation of analytes was achieved using an Accucore Vanquish C18+ column (1.5 µm, 50 x 2.1 mm) at a temperature of 40°C and a binary mobile phase gradient at a flow rate of 0.4 mL/min. Initial LC conditions comprised 54% solvent A (0.1% formic acid + 5 mM ammonium acetate in water), 46% solvent B (0.1% formic acid + 5 mM ammonium acetate in methanol); this was ramped to 67% B at 1.8 min and 95% B at 1.9 min, held for 0.5 min and then immediately returned to initial conditions and held for the remaining 0.5 min of the method. Sample analysis was by electrospray ionisation combined with multiple reaction monitoring in negative ion mode. The […]
Mean blood concentration-time profile: Within these studies SSAs 3 and 5 were dosed at 1 mg/kg, to female CD-1 mice (n=9 per SSA) via an intravenous tail vein bolus dose formulation as solutions in 2 % DMSO/98 % water. Blood taken from the mouse tail vein was extracted by protein precipitation.
SSA concentrations were calculated through UPLC-MS/MS techniques, with tolbutamide as the internal standard. The assay met the acceptance criteria with >7 calibration standards within ± 20% of nominal concentration. The lower limit of quantitation was 2 ng/mL for both compounds. PK […]

MRSA USA300 [3] = settings: n = 3, 0.5 McFarland standard, after 900 min, number in bracket = efficacy rank; cited from earlier work
[4] = system: calcein loaded phospholipid vesicles (PC, PG, PE-PG mix, E. coli total, E. coli polar); assay: Synthetic phospholipid vesicle lysis (calcein leakage) assay; settings: SSA titration; concentrations ≤0.5 mM; after 15 min; in words
[5] = Staphylococcus aureus, 15 h, MRSA USA300, n = 3, 0.5 McFarland standard, after 900 min, number in bracket = efficacy rank, SSA 11 estimated due to data quality
[6] = Staphylococcus aureus, 15 h, Table S3, conversion of the mM values of Table 1, MRSA USA300, after 900 mins
[7] = 10 uM, 120 minutes, n = 2 technical repeats, read-out: Papp (B-A)
[8] = in words, read-out: Papp (B-A) class

Compound: Cc1ccc2nc(-c3ccc(NC(=O)NCC(=O)O)cc3)sc2c1 [SSA 11]
MIC50 (MRSA USA300 [1]; [5]): 310 to 630 µM
MIC50 (MRSA USA300 [1]; [6]): 181 to 367 µg/mL

Compound: O=C(NCS(=O)(=O)O)Nc1ccccc1-c1nc2ccccc2s1 [SSA 5]
MIC50 (MRSA USA300 [1]; [6]): 599 µg/mL
recovery at 120 min, 10 µM ([2]; read-out: Recovery (A-B)): 79%
recovery at 120 min, 10 µM ([2]; read-out: Recovery (B-A)): 107%
Papp B→A at 120 min, 10 µM [2, 7]: 21 ×10⁻⁶ cm/s
Papp B→A at 120 min, 10 µM [2, 8]: > 10 ×10⁻⁶ cm/s
MIC50 MRSA (MRSA USA300 [3]): 0.99(5) mM
vesicle lysis PG over PC [4]: enhanced levels of vesicle lysis against PG

Compound: Cc1ccc2nc(NC(=O)NCS(=O)(=O)O)sc2c1 [SSA 7]
inhibition at 3300 µM (MRSA USA300 [1]; Staphylococcus aureus, 15 h, 3.3 mM, after 900 min, read-out: initial antimicrobial screening, inhibition of growth, MRSA): < 10%
initial antimicrobial screening outcome, MRSA (MRSA USA300 [1]; Table S3, screening at 3.3 mM): Fail

Compound: Cc1ccc2nc(-c3ccc(NC(=O)NCCC(=O)O)cc3)sc2c1 [SSA 9]
MIC50 (MRSA USA300 [1]; [5]): 1200 µM
MIC50 (MRSA USA300 [1]; [6]): 760 µg/mL

Compound: Cc1ccc2nc(-c3ccc(NC(=O)NCS(=O)(=O)O)cc3)sc2c1 [SSA 6]
MIC50 (MRSA USA300 [1]; [6]): 576 µg/mL
recovery at 120 min, 10 µM ([2]; read-out: Recovery (A-B)): 59%
recovery at 120 min, 10 µM ([2]; read-out: Recovery (B-A)): 86%
Papp B→A at 120 min, 10 µM [2, 7]: 11 ×10⁻⁶ cm/s
Papp B→A at 120 min, 10 µM [2, 8]: > 10 ×10⁻⁶ cm/s
MIC50 MRSA (MRSA USA300 [3]): 0.93(4) mM
vesicle lysis PG over PC [4]: enhanced levels of vesicle lysis against PG

Continued, in another order:

MIC50 (MRSA USA300 [1]; [6]): 248 µg/mL
recovery at 120 min, 10 µM ([2]; read-out: Recovery (A-B)): 93%
recovery at 120 min, 10 µM ([2]; read-out: Recovery (B-A)): 101%
Papp B→A at 120 min, 10 µM [2, 7]: 5.4 ×10⁻⁶ cm/s
Compound: O=C(NCS(=O)(=O)O)Nc1ccc(C(F)(F)F)cc1 [SSA 1]
MIC50 MRSA (MRSA USA300 [3]): 0.46(2) mM

recovery at 120 min, 10 µM ([2]; read-out: Recovery (A-B)): 97%
recovery at 120 min, 10 µM ([2]; read-out: Recovery (B-A)): 102%
Papp B→A at 120 min, 10 µM [2, 7]: 1.7 ×10⁻⁶ cm/s
Compound: O=C(NCCCS(=O)(=O)O)Nc1ccc(C(F)(F)F)cc1 [SSA 2]

MIC50 MRSA (MRSA USA300 [1]; Table S3, conversion of the mM values of Table 1, MRSA USA300, after 900 mins): 132 µg/mL (≈ 443 µM)
Compound: O=C(NCS(=O)(=O)O)Nc1ccc(C(F)(F)F)cc1 [SSA 3]
MIC50 MRSA (MRSA USA300 [3]): 0.35(1) mM

MIC50 (MRSA USA300 [1]; [6]): 574 µg/mL
recovery at 120 min, 10 µM ([2]; read-out: Recovery (A-B)): 93%
recovery at 120 min, 10 µM ([2]; read-out: Recovery (B-A)): 96%
Papp B→A at 120 min, 10 µM [2, 7]: 2.3 ×10⁻⁶ cm/s
Compound: O=C(O)CNC(=O)Nc1ccc(C(F)(F)F)cc1 [SSA 4]
MIC50 MRSA (MRSA USA300 [3]): 1.14(6) mM

MIC50 (MRSA USA300 [1]; [5]): 590 µM
MIC50 (MRSA USA300 [1]; [6]): 382 µg/mL
recovery at 120 min, 10 µM ([2]; read-out: Recovery (A-B)): 54%
recovery at 120 min, 10 µM ([2]; read-out: Recovery (B-A)): 95%
Papp B→A at 120 min, 10 µM [2, 7]: 6.7 ×10⁻⁶ cm/s
Compound: Cc1ccc2nc(-c3ccc(NC(=O)NCCCS(=O)(=O)O)cc3)sc2c1 [SSA 10]

MIC50 (MRSA USA300 [1]; [5]): 1150 µM
MIC50 (MRSA USA300 [1]; [6]): 696 µg/mL
Compound: O=C(NCS(=O)(=O)O)Nc1ccc(-c2nc3ccccc3s2)cc1 [SSA 8]
vesicle lysis PG over PC [4]: enhanced levels of vesicle lysis against PG
